ChEMBL document CHEMBL1201862, “PubChem BioAssay data set” (2004)
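Five concentrations, 48 hours, 96-well plates. GI50 is the concentration that inhibits growth by half.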 The source made the active and inactive calls. No stated cut-off is given here; in the data, active = GI50 up to about 1.1 µM and inactive = higher.

Tests used:
Assay in all cases: inhibition of tumour cell growth, NCI panel, 48 h
[1] = system: BT-549
[2] = system: OVCAR-8
[3] = system: DU-145
[4] = system: HCT-15
[5] = system: ACHN
[6] = system: MDA-MB-231
[7] = system: K562
[8] = system: UACC-62
[9] = system: SK-MEL-28
[10] = system: A498
[11] = system: CAKI-1
[12] = system: Malme-3M
[13] = system: PC-3
[14] = system: SW-620
[15] = system: MDA-N
[16] = system: M14
[17] = system: Hs-578T
[18] = system: SF-268
[19] = system: CCRF-CEM
[20] = system: NCI/ADR-RES
[21] = system: U-251
[22] = system: MOLT-4
[23] = system: MDA-MB-435
[24] = system: SN12C
[25] = system: COLO 205
[26] = system: SR
[27] = system: HCT-116
[28] = system: NCI-H460
[29] = system: T47D
[30] = system: 786-0
[31] = system: KM12
[32] = system: SF-539
[33] = system: MCF7
[34] = system: UO-31
[35] = system: HOP-92
[36] = system: HL-60
[37] = system: LOX IMVI
[38] = system: NCI-H23
[39] = system: SK-OV-3
[40] = system: A549
[41] = system: SF-295
[42] = system: OVCAR-5
[43] = system: RPMI-8226
[44] = system: HOP-62
[45] = system: SNB-75
[46] = system: OVCAR-3
[47] = system: TK-10
[48] = system: EKVX
[49] = system: RXF 393
[50] = system: SNB-19
[51] = system: NCI-H226
[52] = system: HCC 2998
[53] = system: IGROV-1
[54] = system: SK-MEL-5
[55] = system: SK-MEL-2
[56] = system: OVCAR-4
[57] = system: NCI-H522
[58] = system: UACC-257
[59] = system: HT-29

## c1ccc(-c2nc(-c3ccccc3SSc3ccccc3-c3nc(-c4ccccc4)nn3-c3ccccc3)n(-c3ccccc3)n2)cc1
[1]
  GI50: > 100 µM (inactive)
[2]
  GI50: > 100 µM (inactive)
[3]
  GI50: > 100 µM (inactive)
[4]
  GI50: > 100 µM
[5]
  GI50: > 100 µM (inactive)
[6]
  GI50: > 100 µM (inactive)
[7]
  GI50: > 100 µM (inactive)
[8]
  GI50: > 100 µM (inactive)
[9]
  GI50: > 100 µM (inactive)
[10]
  GI50: > 100 µM (inactive)
[11]
  GI50: > 100 µM (inactive)
[12]
  GI50: > 100 µM (inactive)
[13]
  GI50: > 100 µM (inactive)
[14]
  GI50: > 100 µM (inactive)
[15]
  GI50: > 100 µM (inactive)
[16]
  GI50: > 100 µM (inactive)
[17]
  GI50: > 100 µM (inactive)
[18]
  GI50: > 100 µM (inactive)
[19]
  GI50: > 100 µM (inactive)
[20]
  GI50: > 100 µM (inactive)
[21]
  GI50: > 100 µM (inactive)
[22]
  GI50: > 100 µM (inactive)
[23]
  GI50: > 100 µM (inactive)
[24]
  GI50: > 100 µM (inactive)
[25]
  GI50: > 100 µM (inactive)
[26]
  GI50: > 100 µM (inactive)
[27]
  GI50: > 100 µM (inactive)
[28]
  GI50: > 100 µM (inactive)
[29]
  GI50: > 100 µM (inactive)
[30]
  GI50: > 100 µM (inactive)
[31]
  GI50: > 100 µM (inactive)
[32]
  GI50: > 100 µM (inactive)
[33]
  GI50: > 100 µM (inactive)
[34]
  GI50: > 100 µM (inactive)
[35]
  GI50: > 100 µM (inactive)
[36]
  GI50: > 100 µM (inactive)
[37]
  GI50: > 100 µM (inactive)
[38]
  GI50: > 100 µM (inactive)
[39]
  GI50: > 100 µM (inactive)
[40]
  GI50: > 100 µM (inactive)
[41]
  GI50: > 100 µM (inactive)
[42]
  GI50: > 100 µM (inactive)
[43]
  GI50: > 100 µM (inactive)
[44]
  GI50: > 10 µM (inactive)
[45]
  GI50: > 100 µM (inactive)
[46]
  GI50: > 100 µM (inactive)
[47]
  GI50: > 100 µM (inactive)
[48]
  GI50: > 100 µM (inactive)
[49]
  GI50: > 100 µM (inactive)
[50]
  GI50: > 100 µM (inactive)
[51]
  GI50: > 100 µM (inactive)
[52]
  GI50: > 100 µM (inactive)
[53]
  GI50: > 100 µM (inactive)

## O=C(Nc1ccccc1)c1cc(S(=O)(=O)N2CCNNC2=O)c(S)cc1Cl
[1]
  GI50: 37.5 µM (inactive)
[2]
  GI50: 32.3 µM (inactive)
[3]
  GI50: 90.4 µM (inactive)
[4]
  GI50: 59.2 µM
[5]
  GI50: > 100 µM (inactive)
[6]
  GI50: 39 µM (inactive)
[7]
  GI50: 84.9 µM (inactive)
[8]
  GI50: > 100 µM (inactive)
[54]
  GI50: > 100 µM (inactive)
[55]
  GI50: > 100 µM (inactive)
[9]
  GI50: > 100 µM (inactive)
[10]
  GI50: > 100 µM (inactive)
[11]
  GI50: > 100 µM (inactive)
[12]
  GI50: 56.1 µM (inactive)
[13]
  GI50: > 100 µM (inactive)
[14]
  GI50: 33 µM (inactive)
[15]
  GI50: > 100 µM (inactive)
[16]
  GI50: > 100 µM (inactive)
[17]
  GI50: > 100 µM (inactive)
[18]
  GI50: > 100 µM (inactive)
[56]
  GI50: > 100 µM (inactive)
[19]
  GI50: 71.9 µM (inactive)
[20]
  GI50: 34.7 µM (inactive)
[21]
  GI50: > 100 µM (inactive)
[22]
  GI50: 71.6 µM (inactive)
[23]
  GI50: > 100 µM (inactive)
[24]
  GI50: > 100 µM (inactive)
[25]
  GI50: > 100 µM (inactive)
[26]
  GI50: 95.3 µM (inactive)
[27]
  GI50: 40.1 µM (inactive)
[28]
  GI50: > 100 µM (inactive)
[57]
  GI50: 24.7 µM (inactive)
[29]
  GI50: 44.5 µM (inactive)
[30]
  GI50: 47.6 µM (inactive)
[31]
  GI50: > 100 µM (inactive)
[32]
  GI50: > 100 µM (inactive)
[33]
  GI50: > 100 µM (inactive)
[34]
  GI50: > 100 µM (inactive)
[35]
  GI50: 47.3 µM (inactive)
[58]
  GI50: > 100 µM (inactive)
[36]
  GI50: > 100 µM (inactive)
[37]
  GI50: 43.7 µM (inactive)
[40]
  GI50: > 100 µM (inactive)
[41]
  GI50: > 100 µM (inactive)
[42]
  GI50: > 100 µM (inactive)
[43]
  GI50: 33.9 µM (inactive)
[45]
  GI50: > 100 µM (inactive)
[46]
  GI50: > 100 µM (inactive)
[47]
  GI50: > 100 µM (inactive)
[48]
  GI50: > 100 µM (inactive)
[49]
  GI50: 21.3 µM (inactive)
[50]
  GI50: > 100 µM (inactive)
[51]
  GI50: > 100 µM (inactive)
[52]
  GI50: > 100 µM (inactive)
[53]
  GI50: > 100 µM (inactive)

## O=C1C2Cc3c(n(C(=O)c4ccccc4)c4ccccc34)CC2C(=O)N1c1ccc(Nc2ccc(N3C(=O)C4Cc5c(n(C(=O)c6ccccc6)c6ccccc56)CC4C3=O)cc2)cc1 (stereo not drawn)
[1]
  GI50: > 100 µM (inactive)
[2]
  GI50: > 100 µM (inactive)
[3]
  GI50: > 100 µM (inactive)
[4]
  GI50: > 100 µM
[5]
  GI50: > 100 µM (inactive)
[6]
  GI50: 24.3 µM (inactive)
[7]
  GI50: > 100 µM (inactive)
[8]
  GI50: 61 µM (inactive)
[54]
  GI50: 58.1 µM (inactive)
[9]
  GI50: > 100 µM (inactive)
[10]
  GI50: > 100 µM (inactive)
[11]
  GI50: > 100 µM (inactive)
[12]
  GI50: > 100 µM (inactive)
[13]
  GI50: > 100 µM (inactive)
[15]
  GI50: > 100 µM (inactive)
[16]
  GI50: 30.9 µM (inactive)
[17]
  GI50: > 100 µM (inactive)
[18]
  GI50: > 100 µM (inactive)
[56]
  GI50: > 100 µM (inactive)
[19]
  GI50: 40.4 µM (inactive)
[20]
  GI50: > 100 µM (inactive)
[21]
  GI50: > 100 µM (inactive)
[22]
  GI50: > 100 µM (inactive)
[23]
  GI50: > 100 µM (inactive)
[24]
  GI50: > 100 µM (inactive)
[25]
  GI50: > 100 µM (inactive)
[26]
  GI50: 44.4 µM (inactive)
[27]
  GI50: > 100 µM (inactive)
[28]
  GI50: > 100 µM (inactive)
[57]
  GI50: > 100 µM (inactive)
[29]
  GI50: > 100 µM (inactive)
[59]
  GI50: > 100 µM (inactive)
[30]
  GI50: > 100 µM (inactive)
[31]
  GI50: > 100 µM (inactive)
[33]
  GI50: > 100 µM (inactive)
[34]
  GI50: > 100 µM (inactive)
[35]
  GI50: 46 µM (inactive)
[58]
  GI50: > 100 µM (inactive)
[36]
  GI50: 8.85 µM (inactive)
[37]
  GI50: > 100 µM (inactive)
[38]
  GI50: > 100 µM (inactive)
[39]
  GI50: > 100 µM (inactive)
[40]
  GI50: > 100 µM (inactive)
[41]
  GI50: > 100 µM (inactive)
[42]
  GI50: > 100 µM (inactive)
[44]
  GI50: > 100 µM (inactive)
[45]
  GI50: > 100 µM (inactive)
[46]
  GI50: > 100 µM (inactive)
[47]
  GI50: > 100 µM (inactive)
[48]
  GI50: > 100 µM (inactive)
[49]
  GI50: > 100 µM (inactive)
[50]
  GI50: > 100 µM (inactive)
[51]
  GI50: > 100 µM (inactive)
[52]
  GI50: > 100 µM (inactive)
[53]
  GI50: > 100 µM (inactive)
